Here are results for 14 compounds from patent US10030047B2 (Hoffmann-La Roche Inc., priority 2015, dated 2018).

≈ marks a conversion by molar mass, not a printed value.

The experiment concerns A. baumannii strain ATCC19606. Put plainly: Minimum inhibitory concentration (MIC) determination, microbroth dilution (CLSI). Conditions: Acinetobacter baumannii; A. baumannii ATCC19606; CAMHB; read after 20 hours; >=80% growth inhibition; read-out: ATCC19606 MIC. Format: cell-based. The method, boiled down: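 CLSI broth microdilution in cation-adjusted Mueller Hinton broth with twofold compound dilutions and ~5×10^5 CFU/ml inoculum, incubated at 35±2 °C. MIC read after 20 h as lowest concentration inhibiting ≥80% of growth, by eye and OD 600 nm.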
One may read the MIC as the smallest concentration in the dilution series that meets the test's criterion for growth inhibition. `Cc1[nH]c2ccccc2c1C[C@H]1C(=O)NCc2cc(-c3ccc(S(N)(=O)=O)cc3)cc(Cl)c2Sc2ncccc2CN[C@@H](CCCN)C(=O)N[C@@H](CCCCN)C(=O)N1C` [Example 235, 4-[(11S,14S,17S)-14-(4-Amino-butyl)-11-(3-amino-propyl)-25-chloro-16-methyl-17-(2-methyl-1H-indol-3-ylmethyl)-12,15,18-trioxo-2-thia-4,10,13,16,19-pentaaza-tricyclo[19.4.0.0*3,8*]pentacosa-1(25),3(8),4,6,21,23-hexaen-23-yl]-benzenesulfonamide]: the MIC turned out to be 0.5 µg/mL (≈ 0.572 µM). In the case of `CN1C(=O)[C@H](CCCCN)NC(=O)[C@H](CCCN)NCc2cnccc2Sc2c(Cl)cc(C(F)(F)F)cc2CNC(=O)[C@@H]1Cc1c[nH]c2ccccc12` [Example 156, (7S,10S,13S)— 13-((1H-Indol-3-yl)methyl)-10-(4-aminobutyl)-7-(3-aminopropyl)-20-chloro-12-methyl-18-(trifluoromethyl)-6,7,9,10,12,13,15,16-octahydrobenzo[b]pyrido[3,4-p][1,5,8,11,14]thiatetraazacycloheptadecine-8,11,14(5H)-trione] it was 1 µg/mL (≈ 1.29 µM). In the case of `CCN1C(=O)[C@H](CCCCN)NC(=O)[C@H](CCCN)NCc2cccnc2Sc2c(C)cc(Br)cc2CNC(=O)[C@@H]1Cc1c[nH]c2ccccc12` [Example 84, (11S,14S,17S)-14-(4-Amino-butyl)-11-(3-amino-propyl)-23-bromo-16-ethyl-17-(1H-indol-3-ylmethyl)-25-methyl-2-thia-4,10,13,16,19-pentaaza-tricyclo[19.4.0.0*3,8*]pentacosa-1(25),3(8),4,6,21,23-hexaene-12,15,18-trione] it was 0.12 µg/mL (≈ 0.154 µM); in that of `C[C@@H]1NC(=O)[C@H](Cc2c[nH]c3ccccc23)N(C)C(=O)[C@H](CCCCN)NC(=O)[C@H](CCCN)NCc2ccccc2Sc2c(Cl)cccc21` [Example 60, (9S,12S,15S,18S)-15-(4-Amino-butyl)-18-(3-amino-propyl)-4-chloro-12-(1H-indol-3-ylmethyl)-9,13-dimethyl-2-thia-10,13,16,19-tetraaza-tricyclo[19.4.0.0*3,8*]pentacosa-1(25),3,5,7,21,23-hexaene-11,14,17-trione], 2 µg/mL (≈ 2.78 µM).

Regarding `CN1C(=O)[C@H](CCCCN)NC(=O)[C@H](CCC(N)=O)NCc2cccnc2Sc2c(Cl)cc(Cl)cc2CNC(=O)[C@@H]1Cc1c[nH]c2ccccc12` [Example 103, 3-[(11S,14S,17S)-14-(4-Amino-butyl)-23,25-dichloro-17-(1H-indol-3-ylmethyl)-16-methyl-12,15,18-trioxo-2-thia-4,10,13,16,19-pentaaza-tricyclo[19.4.0.0*3,8*]pentacosa-1(25),3,5,7,21,23-hexaen-11-yl]-propionamide], the MIC was determined as 0.25 µg/mL (≈ 0.332 µM). As for `CN1C(=O)[C@H](CCCCN)NC(=O)[C@H](CCCN)NCc2ccccc2Sc2c(F)cccc2CNC(=O)[C@@H]1Cc1c[nH]c2ccccc12` [Example 30, (12S,15S,18S)-15-(4-Amino-butyl)-18-(3-amino-propyl)-4-fluoro-12-(1H-indol-3-ylmethyl)-13-methyl-2-thia-10,13,16,19-tetraaza-tricyclo[19.4.0.0*3,8*]pentacosa-1(21),3,5,7,22,24-hexaene-11,14,17-trione], the figure is 2 µg/mL (≈ 2.91 µM).

For the compound `Cc1cc(Cl)cc2c1Sc1ccccc1CN[C@@H](CCCN)C(=O)N[C@@H](CCCCN)C(=O)N(C)[C@@H](Cc1c[nH]c3ccccc13)C(=O)NC2` [Example 55, (12S,15S,18S)-15-(4-Amino-butyl)-18-(3-amino-propyl)-6-chloro-12-(1H-indol-3-ylmethyl)-4,13-dimethyl-2-thia-10,13,16,19-tetraaza-tricyclo[19.4.0.0*3,8*]pentacosa-1(25),3,5,7,21,23-hexaene-11,14,17-trione], the minimal inhibitory concentration (MIC) stood at 0.5 µg/mL (≈ 0.696 µM).

As to `Cc1[nH]c2ccccc2c1C[C@H]1C(=O)NCc2c(-c3cccnc3)ccc(Cl)c2Sc2ncccc2CN[C@@H](CCCN)C(=O)N[C@@H](CCCCN)C(=O)N1C` [Example 200, (11S,14S,17S)-14-(4-Amino-butyl)-11-(3-amino-propyl)-25-chloro-16-methyl-17-(2-methyl-1H-indol-3-ylmethyl)-22-pyridin-3-yl-2-thia-4,10,13,16,19-pentaaza-tricyclo[19.4.0.0*3,8*]pentacosa-1(25),3(8),4,6,21,23-hexaene-12,15,18-trione], the MIC turned out to be 0.12 µg/mL (≈ 0.151 µM).

On to `CN1C(=O)[C@H](CCCCN)NC(=O)[C@H](CCCN)NCc2cccnc2Sc2c(Cl)cc(-c3cncc(S(C)(=O)=O)c3)cc2CNC(=O)[C@@H]1Cc1c[nH]c2ccccc12` [Example 173, (11S,14S,17S)-14-(4-Amino-butyl)-11-(3-amino-propyl)-25-chloro-17-(1H-indol-3-ylmethyl)-23-(5-methanesulfonyl-pyridin-3-yl)-16-methyl-2-thia-4,10,13,16,19-pentaaza-tricyclo[19.4.0.0*3,8*]pentacosa-1(25),3(8),4,6,21,23-hexaene-12,15,18-trione], for which the MIC turned out to be 2 µg/mL (≈ 2.32 µM).

For the compound `CN1C(=O)[C@H](CCCCN)NC(=O)[C@H](CCCN)NCc2ccccc2Sc2ccccc2CNC(=O)[C@@H]1Cc1cn(C)c2cc(Cl)ccc12` [Example 16, (12S,15S,18S)-15-(4-Amino-butyl)-18-(3-amino-propyl)-12-(6-chloro-1-methyl-1H-indol-3-ylmethyl)-13-methyl-2-thia-10,13,16,19-tetraaza-tricyclo[19.4.0.0*3,8*]pentacosa-1(21),3,5,7,22,24-hexaene-11,14,17-trione], the minimal inhibitory concentration (MIC) stood at 32 µg/mL (≈ 44.5 µM). In the case of `CN1C(=O)[C@H](CCCCN)NC(=O)[C@H](CCCN)NCc2cccnc2Sc2c(Cl)ccc(Br)c2CNC(=O)[C@@H]1Cc1c[nH]c2ccccc12` [Example 90, (11S,14S,17S)-14-(4-Amino-butyl)-11-(3-amino-propyl)-22-bromo-25-chloro-17-(1H-indol-3-ylmethyl)-16-methyl-2-thia-4,10,13,16,19-pentaaza-tricyclo[19.4.0.0*3,8*]pentacosa-1(25),3,5,7,21,23-hexaene-12,15,18-trione] it was 0.25 µg/mL (≈ 0.319 µM); in that of `CN1C(=O)[C@H](CCCCN)NC(=O)[C@H](CCCN)NCc2c(F)cccc2Sc2ccccc2CNC(=O)[C@@H]1Cc1c[nH]c2ccccc12` [Example 35, (12S,15S,18S)-15-(4-Amino-butyl)-18-(3-amino-propyl)-22-fluoro-12-(1H-indol-3-ylmethyl)-13-methyl-2-thia-10,13,16,19-tetraaza-tricyclo[19.4.0.0*3,8*]pentacosa-1(21),3,5,7,22,24-hexaene-11,14,17-trione], 8 µg/mL (≈ 11.6 µM); in that of `CN1C(=O)[C@H](CCCCN)NC(=O)[C@H](CCCN)NCc2cc(F)ccc2Sc2c(Cl)cc(Cl)cc2CNC(=O)[C@@H]1Cc1c[nH]c2ccccc12` [Example 27, (12S,15S,18S)-15-(4-Amino-butyl)-18-(3-amino-propyl)-4,6-dichloro-23-fluoro-12-(1H-indol-3-ylmethyl)-13-methyl-2-thia-10,13,16,19-tetraaza-tricyclo[19.4.0.0*3,8*]pentacosa-1(25),3,5,7,21,23-hexaene-11,14,17-trione], 2 µg/mL (≈ 2.64 µM). On to `CN1C(=O)[C@H](CCCCN)NC(=O)[C@H](CCCN)NCc2ccccc2Sc2ccc(Cl)cc2CNC(=O)[C@@H]1Cc1c[nH]c2ccccc12` [Example 4, (12S,15S,18S)-15-(4-Amino-butyl)-18-(3-amino-propyl)-6-chloro-12-(1H-indol-3-ylmethyl)-13-methyl-2-thia-10,13,16,19-tetraaza-tricyclo[19.4.0.0*3,8*]pentacosa-1(21),3,5,7,22,24-hexaene-11,14,17-trione], for which the MIC was determined as 1 µg/mL (≈ 1.42 µM).
